Experimental findings from US20210017607A1, “Methods of Predicting Responsiveness to Cancer Therapies” (The University of Chicago, priority 2019, published 2021) are described below.

One test relates to Myc-CAP-PTEN^−/− tumors. As to the kind of experiment: Myc-CAP-PTEN−/− syngeneic tumors in vivo (growth, flow cytometry). Also noted: species or system mouse. Here is the method:
FIGS. 35A-35D. […] (35A) Myc-CAP-PTEN^−/− cells were treated with copanlisib […] (IC90 concentration) in vitro for 24 hours, and protein extracts were harvested for western blotting analysis with the indicated antibodies to analyze PI3K activation. (35B) Supernatants from (35A) were harvested for cytokine array profiling. n=3 independent in vitro experiments. (35C) Mice bearing Myc-CAP-PTEN^−/− established syngeneic tumors (200 mm^3) were treated with copanlisib (14 mg/kg, every other day, until tumors reached 2000 mm^3). Tumor volumes were monitored daily and graphed. (35D) At the end of treatment, tumors were analyzed by flow cytometry for tumor infiltrating immune cell subsets. n=5 mice per group.
FIGS. 37A and 37B. Myc-CAP-PTEN deficient cancers are resistant to ADT/PARPi/PI3Ki/combination due to an absence of macrophage infiltration/activation and secondary CD8/CD4 T cell infiltration following treatment. Syngeneic PTEN-proficient and PTEN-deficient Myc-CAP mice were treated with a single dose of degarelix, rucaparib (PARP inhibitor), BKM120 (pan-PI3K inhibitor), or anti-PD-L1 antibody, singly and in combination for 3 weeks. (37A) Tumor volumes were monitored, as indicated. (37B) Tumors were harvested at the end of treatment and macrophage infiltration and activation (upper left and right panels), and CD4 and CD8 T cell infiltration (lower left and right panels, respectively) were analyzed by flow cytometry. n=3 animals/group.
FIG. 44. […] Syngeneic mice bearing established PTEN-proficient (PTEN^+/+) and PTEN-deficient (PTEN^−/−) Myc-CAP tumors (200 mm^3) were treated with DMXAA ([…] intra-tumoral dose) for 12 days. Tumor volumes were monitored daily and graphed relative to untreated groups. n=3-5 mice per group.
FIGS. 45A and 45B. […] Syngeneic mice bearing established PTEN-proficient (PTEN^+/+) and PTEN-deficient (PTEN^−/−) Myc-CAP tumors (200 mm^3) were treated with DMXAA (500 μg, single intra-tumoral dose) for 12 days. The harvested tumors were analyzed by flow cytometry for CD45 (45A) and tumor infiltrating immune cell subsets (45B). n=3-5 mice per group.
FIGS. 46A-46C. […] Syngeneic mice bearing established PTEN-proficient (PTEN^+/+) or PTEN-deficient (PTEN^−/−) Myc-CAP tumors (200 mm^3) were treated with DMXAA (500 μg, single intra-tumoral dose) for 12 days. The harvested tumors were analyzed by flow cytometry for activation status of immune cells: (46A) MHC-II/PD-L1 expression on macrophages; (46B) 41bb/PD-1 expression on CD4+FoxP3-T-cells and (46C) on CD8+T-cells. n=3-5 mice per group.
FIG. 47. […] Syngeneic mice bearing established PTEN-proficient (PTEN^+/+) and PTEN-deficient (PTEN^−/−) Myc-CAP tumors (200 mm^3) were treated with DMXAA (500 μg, single intra-tumoral dose) for 12 days. The harvested tumors were analyzed by flow cytometry for CD4+T-cells subsets, specifically FoxP3+ and FoxP3− fractions. n=3-5 mice per group.
In vivo drug efficacy studies using murine tumor models. Wild-type (WT) C57BL/6J, FVB/NJ mice were purchased from Jackson laboratories and mice were kept in an AALAC (American Association for the Accreditation of Laboratory Animal Care) certified barrier facility at the University of Chicago. Animal work was carried out according to approved IACUC (Institutional Animal Care and Use Committee protocols). For Myc-CAP cell line based experiments, mice aged 8-10 weeks were engrafted with 1 million cells re-suspended in 1×PBS, under anesthesia. Treatments were started when tumor volumes reached approximately 250-400 mm^3, and mice were randomly allocated to treatment groups as indicated. Tumor volume was calculated using the formula: 0.5×longest diameter×(shortest diameter)^2. Euthanasia was performed for tumor ulceration and/or tumor diameter >2 cm, as per IACUC-approved protocol. All in vivo treatments were done for 20-23 days and tumor volume measurements were collected on a daily basis. For ID8 tumors, the weights (gm) as well as the abdominal girth (mm) measurements were recorded daily. […]
Background: In flow cytometry, cells or beads pass a laser one at a time.

In the next test the test system is B6-Myc (STING^hi) tumors. As to the kind of experiment: B6-Myc syngeneic tumor growth. It counts as in vivo, mouse. The settings on record: immunocompetent syngeneic mice. From the text:
Tumor volume curves for duration of treatment are shown. […] Data are represented relative to CD45+ immune cells.
Tumor volume curves for duration of treatment are shown.

Setting [1] is: copanlisib 14 mg/kg every other day.
Where [2] appears, read: DMXAA 500 μg single intra-tumoral dose, 12 days.
Where [3] appears, read: relative to PTEN-proficient counterparts.

The structures appear in SMILES notation.

With `COc1c(OCCCN2CCOCC2)ccc2c1N=C(NC(=O)c1cnc(N)nc1)N1CCN=C21` [copanlisib], in the test on Myc-CAP-PTEN^−/− tumors (setting [1]), the MDSC infiltration result is “decreasing” and the tumor growth entry was “retards growth”.
For `CNCc1ccc(-c2[nH]c3cc(F)cc4c3c2CCNC4=O)cc1` [rucaparib], the tumor growth response entry in the test on B6-Myc (STING^hi) tumors is on record as “de novo resistance”.
As to `Cc1ccc2c(=O)c3cccc(CC(=O)O)c3oc2c1C` [DMXAA, 5,6-Dimethylxanthenone-4-acetic Acid], the tumor growth response result with B6-Myc (STING^hi) tumors is listed as “phenocopied”. In the test with Myc-CAP-PTEN^−/− tumors (setting [2]), the Gr-MDSCs entry was “trend towards decreasing Gr-MDSCs” and the “global immune infiltration (CD45)” value is “increases global immune infiltration”. The “tumor responsiveness of PTEN-deficient relative to PTEN-proficient Myc-CAP tumors” value in the test with Myc-CAP-PTEN^−/− tumors (DMXAA single intra-tumoral dose, 12 days) is “more responsive”. Besides, the “response of PTEN-deficient prostate cancers to direct STING agonist” value with Myc-CAP-PTEN^−/− tumors (PTEN-deficient prostate cancer murine models (Example 1)) is listed as “resistant”. Besides, in the test on Myc-CAP-PTEN^−/− tumors (setting [3]), the “macrophage, CD4 and CD8 T-cell activation” value was “selectively increases macrophage, CD4 and CD8 T-cell activation”; the “regulatory T-cell infiltration” value is reported as “increases regulatory T-cell infiltration”.
